In patent publication US7091198B1, “2,5-disubstituted pyrimidine derivatives” (Bayer HealthCare AG, priority 2002, dated 2006):

Each molecule was assayed on cGMP in primary cortical neurons (assay: Increase of cGMP in primary cortical neurons). Details: Primary cortical neuron, 20 min; rat embryonic primary cortical neurons; 20 min incubation at 37° C. with IBMX; triplicate determination; more than 2-fold increase compared with the control; read-out: concentration leading to a statistically significant increase in cGMP.
Format: cell-based
Method: Increase of cGMP in Primary Cortical Neurons
Rat embryos (embryonic day 17–19) are decapitated, and the cerebrum is removed and incubated with 5 ml of papain solution and 250 μl of DNAse (papain kit from Cell-System) at 37° C. for 30 min, homogenized using a Pasteur pipette and centrifuged at 1200 rpm for 5 min. The supernatant is removed, the cell pellet resuspended (in 2.7 ml of EBSS [Earl's balanced salt solution], 300 μl of ovomucoid/albumin (conc.) solution, 150 μl of DNAse; papain kit from Cell-System), layered over 5 ml of ovomucoid/albumin solution and centrifuged at 700 rpm for 6 min. The supernatant is removed, the cells are resuspended in cultivation medium (Gibco neurobasal medium, B27 Supplement 50×1 ml/100 ml, 2 mM L-glutamine), counted (approx. 150 000 cells/well) and plated out on poly-D-lysine-coated 96-well plates (Costar) with 200 μl/well. After 6–7 days at 37° C. (5% CO2), the neurons are freed of culture medium and washed once with assay buffer (154 mM NaCl, 5.6 mM KCl, 2.3 mM CaCl2.2H2O, 1 mM MgCl2, 5.6 mM glucose, 8.6 mM HEPES (4-(2-hydroxyethyl)piperazine-1-ethanesulfonic acid), pH=7.4). 100 μl/well test substance are dissolved in assay buffer and then 100 μl/well IBMX (3-isobutyl-1-methylxanthine; dissolved in 50 mM ethanol, diluted with assay buffer to a final concentration of 100 μM) are added. After incubation at 37° C. for 20 min, the assay buffer is replaced by 200 μl/well of lysis buffer (cGMP EIA RPN 226 from Amersham Pharmacia Biotech), and the cGMP content of the lystates is determined using an EIA assay kit.
The concentrations indicated in Table 1 lead to a statistically significant increase in cGMP (triplicate determination; more than 2-fold increase compared with the control)

SMILES | minimal effective concentration
O=C1CCCCC1c1cnc(-c2nn(Cc3ccccc3F)c3ncccc23)nc1 (centres unmarked) [Example 13, 2-{2-[1-(2-Fluorobenzyl)-1H-pyrazol[3,4-b]pyridin-3-yl]-5-pyrimidinyl}-cyclohexanone] | 0.27 µM
CO[C@H]1CN(c2cnc(-c3nn(Cc4ccccc4F)c4ncccc34)nc2)C[C@@H]1OC [Example 6] | 0.27 µM
Fc1ccccc1Cn1nc(-c2ncc(N3CC4CCC(C3)O4)cn2)c2cccnc21 [Example 19, 1-(2-Fluorobenzyl)-3-[5-(8-oxa-3-azabicyclo[3.2.1]oct-3-yl)-2-pyrimidinyl]-1H-pyrazolo[3,4-b]pyridine] | 0.27 µM
O=C1CCN(c2cnc(-c3nn(Cc4ccccc4F)c4ncccc34)nc2)C1 [Example 38, 1-{2-[1-(2-Fluorobenzyl)-1H-pyrazol[3,4-b]pyridin-3-yl]-5-pyrimidinyl}-3-pyrrolidinone] | 0.27 µM
Fc1ccccc1Cn1nc(-c2ncc(N3CC4CNCC(C3)O4)cn2)c2cccnc21 [Example 10] | 1.2 µM
CO[C@H]1CCN(c2cnc(-c3nn(Cc4ccccc4F)c4ncccc34)nc2)C1 [Example 20, 1-(2-Fluorobenzyl)-3-{5-[(3S)-3-methoxy-1-pyrrolidinyl]-2-pyrimidinyl}-1 H-pyrazolo[3,4-b]pyridine] | 0.27 µM
Fc1ccccc1Cn1nc(-c2ncc(-c3cn[nH]c3C3CC3)cn2)c2cccnc21 [Example 36, 3-[5-(5-Cyclopropyl-1H-pyrazol-4-yl)-2-pyrimidinyl]-1-(2-fluorobenzyl)-1 H-pyrazolo[3,4-b]pyridine] | 0.27 µM
COc1ccccc1-c1cnc(-c2nn(Cc3ccccc3F)c3ncccc23)nc1 [Example 27] | 0.9 µM
